Measured values as given in patent US20250313572A1, “MACROCYCLIC MCL-1 INHIBITORS AND METHODS OF USE” (AbbVie Inc., priority 2017, published 2025).
Where two headings read alike, the source gives them in different places.

Key:
[1] = test system: NCI-H929 human multiple myeloma tumor cell line; assay: NCI-H929 cell viability assay (CellTiter-Glo, 24 hours); type: cell-based; conditions: Homo sapiens, NCI-H929, 24 h, read-out: H929 Viability IC50 (μM, 10% FBS), 10% FBS, 24 hours of compound treatment
Experimental: (§1) Each concentration was tested in duplicate at least 3 independent times. A luminescent signal proportional to the number of viable cells following 24 hours of compound treatment was determined using the CellTiter-Glo® Luminescent Cell Viability Assay according to the manufacturer's recommendations (Promega Corp., Madison, WI). The plates were read in a Perkin Elmer Envision using a Luminescence protocol. To generate dose response curves the data is normalized to percent viability by setting the averages of the staurosporine (10 μM) and DMSO only control wells to 0% and 100% viability respectively.

[2] = test system: AMO-1 human multiple myeloma tumor cell line; assay: AMO-1 cell viability assay (CellTiter-Glo, 24 hours); type: cell-based; conditions: Homo sapiens, AMO1, 24 h, read-out: AMO-1 Viability IC50 (μM, 10% FBS), 10% FBS, 24 hours of compound treatment
Experimental: as §1

GST-MCL-1 = GST-MCL-1 (Homo sapiens, UniProt Q07820); assay: TR-FRET MCL-1 binding assay (competition with probe F-Bak)
Method in brief: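 Displacement of F-Bak from GST-MCL-1 is detected by time-resolved FRET with a Tb-labelled anti-GST antibody, with excitation 340/35 nm and emission 520/525 and 495/510 nm, after 2 hours at room temperature. Compounds were titrated in 11 three-fold steps starting at 25 μM final, in buffer alone or in 10% HS.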

[3] = MCL-1 Binding Ki (nM, 10% HS), in the presence of 10% HS (human serum)
[4] = without HS, read-out: MCL-1 Binding Ki

Sequence of GST-MCL-1 (Q07820 whole entry): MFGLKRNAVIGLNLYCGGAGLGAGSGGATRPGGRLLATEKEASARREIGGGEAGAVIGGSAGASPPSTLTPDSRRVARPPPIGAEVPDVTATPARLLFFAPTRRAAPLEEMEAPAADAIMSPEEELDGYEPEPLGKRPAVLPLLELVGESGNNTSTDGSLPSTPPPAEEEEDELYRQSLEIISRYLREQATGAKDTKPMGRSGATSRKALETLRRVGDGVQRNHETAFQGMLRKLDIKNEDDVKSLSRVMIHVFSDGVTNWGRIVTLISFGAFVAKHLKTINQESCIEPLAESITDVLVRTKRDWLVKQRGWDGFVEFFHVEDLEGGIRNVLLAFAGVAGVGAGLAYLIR

| SMILES | IC50 [1] [µM] | IC50 [2] [µM] | Ki (GST-MCL-1; [3]) [nM] | Ki (GST-MCL-1; [4]) [nM] |
| --- | --- | --- | --- | --- |
| COCCOCCOCCOc1ccc(-c2nccc(COc3ccc4cc3C[C@H](C(=O)O)Oc3ncnc5sc(-c6ccc(F)cc6)c(c35)-c3ccc(c(Cl)c3C)O[C@H](CN3CCN(C)CC3)CO4)n2)cc1 (atropisomer, axis not shown) [Example 13, (7R,16R,21S)-19-chloro-1-(4-fluorophenyl)-10-{[2-(4-{2-[2-(2-methoxyethoxy)ethoxy]ethoxy}phenyl)pyrimidin-4-yl]methoxy}-20-methyl-16-[(4-methylpiperazin-1-yl)methyl]-7,8,15,16-tetrahydro-18,21-etheno-13,9-(metheno)-6,14,17-trioxa-2-thia-3,5-diazacyclononadeca[1,2,3-cd]indene-7-carboxylic Acid] | 0.001 | 0.00046 | 0.251 | 0.054 |
| Cc1c(Cl)c2c(Cl)c(C)c1-c1c(-c3ccc(F)cc3)sc3ncnc(c13)O[C@@H](C(=O)O)Cc1cc(ccc1OCc1ccnc([C@H]3CC[C@H](CC(=O)O)CC3)n1)OC[C@@H](CN1CCN(C)CC1)O2 [Example 32, (7R,16R)-10-({2-[(1r,4r)-4-(carboxymethyl)cyclohexyl]pyrimidin-4-yl}methoxy)-19,23-dichloro-1-(4-fluorophenyl)-20,22-dimethyl-16-[(4-methylpiperazin-1-yl)methyl]-7,8,15,16-tetrahydro-18,21-etheno-13,9-(metheno)-6,14,17-trioxa-2-thia-3,5-diazacyclononadeca[1,2,3-cd]indene-7-carboxylic Acid] | 0.0143 | 0.00878 | 0.034 | 0.003 |
| Cc1c(Cl)c2c(Cl)c(C)c1-c1c(-c3ccc(F)cc3)sc3ncnc(c13)O[C@@H](C(=O)O)Cc1cc(ccc1OCc1ccnc(C3(COCCOC[C@H]4COCCO4)CCCCC3)n1)OC[C@@H](CN1CCN(C)CC1)O2 [Example 102, (7R,16R)-19,23-dichloro-10-[(2-{1-[(2-{[(2R)-1,4-dioxan-2-yl]methoxy}ethoxy)methyl]cyclohexyl}pyrimidin-4-yl)methoxy]-1-(4-fluorophenyl)-20,22-dimethyl-16-[(4-methylpiperazin-1-yl)methyl]-7,8,15,16-tetrahydro-18,21-etheno-13,9-(metheno)-6,14,17-trioxa-2-thia-3,5-diazacyclononadeca[1,2,3-cd]indene-7-carboxylic Acid] | 0.000835 | 0.00029 | 3.27 | 0.229 |
| CO[C@@H]1CO[C@H]2[C@@H]1OC[C@H]2Oc1nccc(COc2ccc3cc2C[C@H](C(=O)O)Oc2ncnc4sc(-c5ccc(F)cc5)c(c24)-c2c(C)c(Cl)c(c(Cl)c2C)O[C@H](CN2CCN(C)CC2)CO3)n1 [Example 146, (7R,16R)-19,23-dichloro-1-(4-fluorophenyl)-10-[(2-{[(3R,3aR,6R,6aR)-6-methoxyhexahydrofuro[3,2-b]furan-3-yl]oxy}pyrimidin-4-yl)methoxy]-20,22-dimethyl-16-[(4-methylpiperazin-1-yl)methyl]-7,8,15,16-tetrahydro-18,21-etheno-13,9-(metheno)-6,14,17-trioxa-2-thia-3,5-diazacyclononadeca[1,2,3-cd]indene-7-carboxylic Acid] | 0.00408 | 0.00223 | 0.041 | 0.001 |
| Cc1c(Cl)c2c(Cl)c(C)c1-c1c(-c3ccc(F)cc3)sc3ncnc(c13)O[C@@H](C(=O)O)Cc1cc(ccc1OCc1ccnc(N3CCS(=O)(=O)CC3)n1)OC[C@@H](CN1CCN(C)CC1)O2 [Example 75, (7R,16R)-19,23-dichloro-10-{[2-(1,1-dioxo-1λ^6-thiomorpholin-4-yl)pyrimidin-4-yl]methoxy}-1-(4-fluorophenyl)-20,22-dimethyl-16-[(4-methylpiperazin-1-yl)methyl]-7,8,15,16-tetrahydro-18,21-etheno-9,13-(metheno)-6,14,17-trioxa-2-thia-3,5-diazacyclononadeca[1,2,3-cd]indene-7-carboxylic Acid] | 0.00914 | 0.00386 | 2.67 | 0.375 |
